What was measured:
[1] = Chemical stability of compound in DMSO assessed as compound remaining at 10 mg/ml after 2 days at room temperature; format: physicochemical; conditions: read-out: Stability
Endothelin-1 receptor = biological target: T1, Endothelin-1 receptor (Homo sapiens, UniProt P25101); assay: Antagonist activity at human wild-type ETA receptor expressed in CHO-K1 cells assessed as endothelin-1-induced calcium by HTRF assay; format: functional, cell-based
T1 sequence (P25101 whole entry): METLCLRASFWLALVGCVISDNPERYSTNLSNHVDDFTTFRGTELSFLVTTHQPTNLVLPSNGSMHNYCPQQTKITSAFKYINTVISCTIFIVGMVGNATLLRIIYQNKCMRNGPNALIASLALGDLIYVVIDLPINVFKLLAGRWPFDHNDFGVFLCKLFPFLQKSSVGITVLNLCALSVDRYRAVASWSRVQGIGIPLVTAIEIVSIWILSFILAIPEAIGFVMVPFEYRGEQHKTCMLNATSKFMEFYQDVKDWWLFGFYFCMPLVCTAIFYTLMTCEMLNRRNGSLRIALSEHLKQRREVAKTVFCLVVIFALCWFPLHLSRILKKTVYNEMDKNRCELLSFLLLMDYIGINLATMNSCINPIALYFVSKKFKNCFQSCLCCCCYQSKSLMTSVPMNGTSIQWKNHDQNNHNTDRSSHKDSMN

[2] = biological target: 5-hydroxytryptamine receptor 1A (Homo sapiens, UniProt P08908); assay: Antagonist activity at human 5-HT1A receptor expressed in CHO-K1 cells assessed as seretonin-induced cAMP level by HTRF assay; format: functional, cell-based
Chain of 5-hydroxytryptamine receptor 1A (P08908 whole entry): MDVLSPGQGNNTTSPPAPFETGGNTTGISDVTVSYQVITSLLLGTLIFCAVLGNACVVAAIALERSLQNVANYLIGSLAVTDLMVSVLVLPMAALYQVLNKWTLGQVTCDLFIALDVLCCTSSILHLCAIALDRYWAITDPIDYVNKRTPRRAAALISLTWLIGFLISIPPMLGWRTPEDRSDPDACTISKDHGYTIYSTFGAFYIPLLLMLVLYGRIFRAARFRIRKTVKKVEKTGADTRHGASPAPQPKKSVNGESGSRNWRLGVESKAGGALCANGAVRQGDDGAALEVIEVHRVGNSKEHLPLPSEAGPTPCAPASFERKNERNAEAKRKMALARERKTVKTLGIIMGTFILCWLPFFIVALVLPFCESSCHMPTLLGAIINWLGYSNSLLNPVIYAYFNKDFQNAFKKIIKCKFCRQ

[3] = biological target: Kappa-type opioid receptor (Homo sapiens, UniProt P41145); assay: Antagonist activity at human wild-type opioid-kappa 1 receptor expressed in CHO-K1 cells assessed as U50488-induced cAMP by HTRF assay; format: functional, cell-based
Chain of Kappa-type opioid receptor (P41145 whole entry): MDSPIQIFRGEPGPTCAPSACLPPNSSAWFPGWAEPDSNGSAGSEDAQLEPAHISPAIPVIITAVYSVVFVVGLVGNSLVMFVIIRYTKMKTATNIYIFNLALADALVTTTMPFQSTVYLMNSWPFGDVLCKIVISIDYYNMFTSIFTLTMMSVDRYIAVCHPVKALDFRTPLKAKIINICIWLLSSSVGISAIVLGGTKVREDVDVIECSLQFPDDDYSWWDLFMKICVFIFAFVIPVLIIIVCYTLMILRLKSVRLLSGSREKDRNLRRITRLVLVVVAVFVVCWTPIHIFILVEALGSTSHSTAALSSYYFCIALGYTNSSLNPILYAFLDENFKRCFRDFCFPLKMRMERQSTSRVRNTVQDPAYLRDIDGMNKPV

[4] = Fraction unbound in mouse plasma at 5 uM after 4.5 hrs by LC-MS/MS analysis; format: ADME, cell-free
[5] = biological target: Muscarinic acetylcholine receptor M3 (Homo sapiens, UniProt P20309); assay: Antagonist activity at human wild-type M3 receptor expressed in CHO-K1 cells assessed as acetylcholine-induced calcium by FDSS assay; format: functional, cell-based
Chain of Muscarinic acetylcholine receptor M3 (P20309 whole entry): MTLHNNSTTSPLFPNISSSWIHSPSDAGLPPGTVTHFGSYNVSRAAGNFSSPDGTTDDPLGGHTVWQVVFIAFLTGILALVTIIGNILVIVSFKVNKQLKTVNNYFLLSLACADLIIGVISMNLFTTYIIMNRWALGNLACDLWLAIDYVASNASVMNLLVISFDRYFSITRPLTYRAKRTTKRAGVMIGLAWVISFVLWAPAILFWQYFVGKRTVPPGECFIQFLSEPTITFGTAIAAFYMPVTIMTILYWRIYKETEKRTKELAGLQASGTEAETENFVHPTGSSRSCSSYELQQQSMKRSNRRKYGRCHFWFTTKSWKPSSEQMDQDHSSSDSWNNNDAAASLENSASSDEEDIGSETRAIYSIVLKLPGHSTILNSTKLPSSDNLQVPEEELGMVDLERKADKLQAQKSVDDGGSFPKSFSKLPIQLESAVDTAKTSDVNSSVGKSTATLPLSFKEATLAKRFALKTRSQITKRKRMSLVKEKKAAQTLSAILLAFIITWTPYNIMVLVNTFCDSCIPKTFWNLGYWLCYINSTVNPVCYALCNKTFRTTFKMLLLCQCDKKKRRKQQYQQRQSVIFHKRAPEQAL

Cytochrome P450 2D6 = Cytochrome P450 2D6 (Homo sapiens, UniProt P10635); assay: Inhibition of human CYP2D6 by LC-MS analysis; format: ADME
Chain of Cytochrome P450 2D6 (P10635 whole entry): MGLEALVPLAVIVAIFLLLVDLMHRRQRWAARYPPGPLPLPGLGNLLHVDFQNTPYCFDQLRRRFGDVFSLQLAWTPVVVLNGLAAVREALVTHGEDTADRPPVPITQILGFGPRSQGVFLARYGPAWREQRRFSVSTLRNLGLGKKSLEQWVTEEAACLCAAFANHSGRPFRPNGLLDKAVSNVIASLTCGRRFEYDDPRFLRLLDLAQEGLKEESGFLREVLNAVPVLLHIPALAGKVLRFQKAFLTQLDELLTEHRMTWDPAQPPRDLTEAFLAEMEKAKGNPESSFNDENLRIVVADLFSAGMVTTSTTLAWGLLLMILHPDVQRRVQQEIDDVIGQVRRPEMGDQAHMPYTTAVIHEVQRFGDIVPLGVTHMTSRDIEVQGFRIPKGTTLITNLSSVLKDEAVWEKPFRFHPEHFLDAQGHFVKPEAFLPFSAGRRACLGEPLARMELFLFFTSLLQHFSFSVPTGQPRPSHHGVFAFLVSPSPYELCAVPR

Vasopressin V1a receptor = Vasopressin V1a receptor (Homo sapiens, UniProt P37288); assay: Antagonist activity at human wild-type AVPR1A receptor expressed in CHO-K1 cells assessed as vassopressin-induced calcium by FDSS assay; format: functional, cell-based
Chain of Vasopressin V1a receptor (P37288 whole entry): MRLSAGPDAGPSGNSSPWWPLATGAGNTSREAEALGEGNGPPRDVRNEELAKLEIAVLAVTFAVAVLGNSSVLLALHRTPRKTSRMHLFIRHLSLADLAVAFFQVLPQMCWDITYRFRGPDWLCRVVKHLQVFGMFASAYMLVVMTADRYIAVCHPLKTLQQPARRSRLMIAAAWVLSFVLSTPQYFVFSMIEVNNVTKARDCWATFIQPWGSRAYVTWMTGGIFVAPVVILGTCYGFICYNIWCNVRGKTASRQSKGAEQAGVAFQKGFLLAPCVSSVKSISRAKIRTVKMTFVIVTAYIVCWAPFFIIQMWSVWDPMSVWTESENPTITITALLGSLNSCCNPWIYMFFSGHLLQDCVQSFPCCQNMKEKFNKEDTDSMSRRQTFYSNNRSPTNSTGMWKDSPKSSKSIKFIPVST

Adenosine receptor A3 = biological target: T2, Adenosine receptor A3 (Homo sapiens, UniProt P0DMS8); assay: Antagonist activity at human wild-type A3 receptor expressed in CHO-K1 cells assessed as IB MECA-induced cAMP by HTRF assay; format: functional, cell-based
T2 sequence (P0DMS8 whole entry): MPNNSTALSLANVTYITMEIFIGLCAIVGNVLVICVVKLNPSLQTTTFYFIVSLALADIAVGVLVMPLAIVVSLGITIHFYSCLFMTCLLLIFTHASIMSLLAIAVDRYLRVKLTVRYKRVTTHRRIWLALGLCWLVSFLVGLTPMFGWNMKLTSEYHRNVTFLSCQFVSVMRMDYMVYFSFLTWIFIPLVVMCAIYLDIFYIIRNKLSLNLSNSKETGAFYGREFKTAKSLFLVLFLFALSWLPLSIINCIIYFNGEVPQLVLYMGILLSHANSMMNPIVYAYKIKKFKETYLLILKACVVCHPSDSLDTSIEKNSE

[6] = Chemical stability of compound in 0.1N NaOH assessed as compound remaining at 10 mg/ml after 1 day; format: physicochemical; conditions: read-out: Stability
[7] = biological target: 5-hydroxytryptamine receptor 6 (Homo sapiens, UniProt P50406); assay: Antagonist activity at human 5-HT6 receptor expressed in 1321N1 cells assessed as seretonin-induced cAMP by HTRF assay; format: functional, cell-based
Chain of 5-hydroxytryptamine receptor 6 (P50406 whole entry): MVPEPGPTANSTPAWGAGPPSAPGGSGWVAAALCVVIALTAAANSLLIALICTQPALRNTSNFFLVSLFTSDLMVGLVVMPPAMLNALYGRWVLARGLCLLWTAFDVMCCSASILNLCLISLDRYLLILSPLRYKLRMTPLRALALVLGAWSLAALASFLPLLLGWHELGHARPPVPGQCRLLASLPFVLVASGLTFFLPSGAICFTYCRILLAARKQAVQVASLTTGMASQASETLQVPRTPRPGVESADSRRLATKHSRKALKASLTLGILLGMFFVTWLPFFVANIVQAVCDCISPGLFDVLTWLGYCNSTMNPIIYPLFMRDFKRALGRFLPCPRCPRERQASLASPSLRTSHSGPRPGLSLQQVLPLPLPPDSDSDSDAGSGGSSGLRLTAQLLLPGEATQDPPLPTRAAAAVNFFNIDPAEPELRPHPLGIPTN

Cytochrome P450 2C8 = biological target: T3, Cytochrome P450 2C8 (Homo sapiens, UniProt P10632); assay: Inhibition of human CYP2C8 by LC-MS analysis; format: ADME
T3 sequence (P10632 whole entry): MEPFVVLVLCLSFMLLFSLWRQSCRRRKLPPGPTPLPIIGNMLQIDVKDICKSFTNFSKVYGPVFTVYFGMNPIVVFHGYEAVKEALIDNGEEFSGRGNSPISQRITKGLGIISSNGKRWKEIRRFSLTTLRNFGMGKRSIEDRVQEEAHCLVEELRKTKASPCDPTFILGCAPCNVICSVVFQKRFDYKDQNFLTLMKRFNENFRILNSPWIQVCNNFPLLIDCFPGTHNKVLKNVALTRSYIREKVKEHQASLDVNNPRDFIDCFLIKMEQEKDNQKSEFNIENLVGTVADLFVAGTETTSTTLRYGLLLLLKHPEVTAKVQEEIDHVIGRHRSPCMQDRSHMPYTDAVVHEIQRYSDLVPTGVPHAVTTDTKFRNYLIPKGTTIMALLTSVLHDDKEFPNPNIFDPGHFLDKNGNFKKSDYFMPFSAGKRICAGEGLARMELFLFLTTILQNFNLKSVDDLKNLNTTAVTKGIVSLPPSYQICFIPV

D(1A) dopamine receptor = D(1A) dopamine receptor (Homo sapiens, UniProt P21728); assay: Agonist activity at human wild-type D1 receptor expressed in CHO cells assessed as cAMP level by HTRF assay; format: functional, cell-based
Chain of D(1A) dopamine receptor (P21728 whole entry): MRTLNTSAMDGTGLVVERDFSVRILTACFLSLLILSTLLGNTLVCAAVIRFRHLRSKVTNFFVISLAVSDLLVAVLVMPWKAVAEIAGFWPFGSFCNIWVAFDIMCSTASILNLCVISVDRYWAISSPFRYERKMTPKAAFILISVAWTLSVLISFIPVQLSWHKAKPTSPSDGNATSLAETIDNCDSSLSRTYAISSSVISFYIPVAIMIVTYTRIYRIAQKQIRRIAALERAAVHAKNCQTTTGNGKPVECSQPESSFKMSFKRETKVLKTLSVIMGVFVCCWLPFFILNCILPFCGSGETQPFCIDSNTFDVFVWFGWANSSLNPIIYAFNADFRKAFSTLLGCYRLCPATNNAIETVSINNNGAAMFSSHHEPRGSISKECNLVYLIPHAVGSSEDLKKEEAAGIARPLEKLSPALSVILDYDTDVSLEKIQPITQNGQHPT

[8] = biological target: T4, Alpha-1A adrenergic receptor (Homo sapiens, UniProt P35348); assay: Antagonist activity at human wild-type alpha 1A receptor expressed in CHO cells assessed as EP-induced calcium by HTRF assay; format: functional, cell-based
T4 sequence (P35348 whole entry): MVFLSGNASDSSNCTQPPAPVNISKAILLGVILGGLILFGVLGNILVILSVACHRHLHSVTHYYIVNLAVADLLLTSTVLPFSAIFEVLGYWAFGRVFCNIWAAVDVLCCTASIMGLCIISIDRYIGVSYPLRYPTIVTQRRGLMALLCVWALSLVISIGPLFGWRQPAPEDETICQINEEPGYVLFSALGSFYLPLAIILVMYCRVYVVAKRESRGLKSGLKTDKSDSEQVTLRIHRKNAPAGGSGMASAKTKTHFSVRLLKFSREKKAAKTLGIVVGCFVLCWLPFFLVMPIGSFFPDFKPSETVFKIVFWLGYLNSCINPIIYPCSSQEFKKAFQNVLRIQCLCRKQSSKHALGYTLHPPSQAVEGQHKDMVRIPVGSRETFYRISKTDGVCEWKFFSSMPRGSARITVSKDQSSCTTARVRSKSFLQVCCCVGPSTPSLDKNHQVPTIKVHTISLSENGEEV

Row | SMILES | remaining at 48 h, 10 mg/ml [1] [%] | IC50 (Endothelin-1 receptor) [µM] | IC50 [2] [µM] | IC50 [3] [µM] | fraction unbound at 4.5 h, 5 µM [4] | IC50 [5] [µM] | IC50 (Cytochrome P450 2D6) [µM] | IC50 (Vasopressin V1a receptor) [µM] | IC50 (Adenosine receptor A3) [µM] | remaining at 24 h, 10 mg/ml [6] [%] | IC50 [7] [µM] | IC50 (Cytochrome P450 2C8) [µM] | EC50 (D(1A) dopamine receptor) [µM] | IC50 [8] [µM]
1 | CB1C=Cc2c(cccc2OCC(O)CN(C)C)N1 (stereo not drawn) | 96 | > 5.01 | 2 | > 5.01 | 0.21 | > 5.01 | 2.51 | > 5.01 | > 5.01 | 89 | > 5.01 | > 10 | > 5.01 | > 5.01
2 | CB1C=Cc2cccc(OCC(O)CNC(C)C)c2N1 (stereo not drawn) | 96 | > 5.01 | > 5.01 | > 5.01 | 0.074 | > 5.01 | 0.398 | > 5.01 | > 5.01 | 88 | > 5.01 | > 10 | > 5.01 | > 5.01

— ChEMBL document CHEMBL3734721 (J Med Chem, 2015)
